Reference: PubChem BioAssay (NCI)
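Interpolation was linear, between the two tested concentrations surrounding the appropriate level; five concentrations were tested over 48 hours in 96-well plates. TGI is the concentration that stops growth completely.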

Assays:
Experiment in all cases: NCI-60 cell line screen, 48 h
LOX IMVI melanoma = test system: LOX IMVI melanoma
SK-MEL-28 melanoma = test system: SK-MEL-28 melanoma
MCF7 breast = test system: MCF7 breast
U251 CNS = test system: U251 CNS
OVCAR-5 ovarian = test system: OVCAR-5 ovarian
SNB-75 CNS = test system: SNB-75 CNS
ACHN renal = test system: ACHN renal
RXF 393 renal = test system: RXF 393 renal
MDA-MB-231 breast = test system: MDA-MB-231 breast
SK-MEL-5 melanoma = test system: SK-MEL-5 melanoma
HCC-2998 colon = test system: HCC-2998 colon
NCI-H460 lung = test system: NCI-H460 lung
CAKI-1 renal = test system: CAKI-1 renal
A498 renal = test system: A498 renal
TK-10 renal = test system: TK-10 renal
DU-145 prostate = test system: DU-145 prostate
A549 NSCLC = test system: A549 NSCLC
UO-31 renal = test system: UO-31 renal
SNB-19 CNS = test system: SNB-19 CNS
M14 melanoma = test system: M14 melanoma
NCI-H522 lung = test system: NCI-H522 lung
MDA-N = test system: MDA-N
HCT-15 colon = test system: HCT-15 colon
MOLT-4 leukemia = test system: MOLT-4 leukemia
EKVX NSCLC = test system: EKVX NSCLC
COLO 205 colon = test system: COLO 205 colon
OVCAR-3 ovarian = test system: OVCAR-3 ovarian
NCI/ADR-RES ovarian = test system: NCI/ADR-RES ovarian
HCT-116 colon = test system: HCT-116 colon
786-0 renal = test system: 786-0 renal
SK-MEL-2 melanoma = test system: SK-MEL-2 melanoma
SN12C renal = test system: SN12C renal
OVCAR-8 ovarian = test system: OVCAR-8 ovarian
HL-60(TB) leukemia = test system: HL-60(TB) leukemia
SF-539 CNS = test system: SF-539 CNS
K-562 leukemia = test system: K-562 leukemia
SK-OV-3 ovarian = test system: SK-OV-3 ovarian
SF-268 CNS = test system: SF-268 CNS
T-47D breast = test system: T-47D breast
BT-549 breast = test system: BT-549 breast
OVCAR-4 ovarian = test system: OVCAR-4 ovarian
MALME-3M melanoma = test system: MALME-3M melanoma
UACC-62 melanoma = test system: UACC-62 melanoma
SW-620 colon = test system: SW-620 colon
KM12 colon = test system: KM12 colon
UACC-257 melanoma = test system: UACC-257 melanoma
SR leukemia = test system: SR leukemia
MDA-MB-435 = test system: MDA-MB-435
IGROV1 ovarian = test system: IGROV1 ovarian
HOP-62 NSCLC = test system: HOP-62 NSCLC
CCRF-CEM leukemia = test system: CCRF-CEM leukemia
HT29 colon = test system: HT29 colon
PC-3 prostate = test system: PC-3 prostate
SF-295 CNS = test system: SF-295 CNS
HOP-92 NSCLC = test system: HOP-92 NSCLC
RPMI-8226 leukemia = test system: RPMI-8226 leukemia
HS 578T breast = test system: HS 578T breast
NCI-H23 lung = test system: NCI-H23 lung
NCI-H226 lung = test system: NCI-H226 lung

Measured: TGI

COc1ccc(OC)c(C2Cc3cnc4nc(N)nc(N)c4c3C2)c1 (stereo unspecified)
56.8 µM: SN12C renal
47.5 µM: SNB-75 CNS
89.9 µM: 786-0 renal
65.5 µM: T-47D breast
55.7 µM: DU-145 prostate | KM12 colon
51.5 µM: UACC-62 melanoma
28 µM: SF-539 CNS
94.7 µM: RPMI-8226 leukemia
40.1 µM: UACC-257 melanoma
53.8 µM: OVCAR-4 ovarian | HOP-92 NSCLC
50.2 µM: IGROV1 ovarian
65 µM: MDA-MB-435
33 µM: A498 renal
52.6 µM: MDA-MB-231 breast | BT-549 breast
97.1 µM: OVCAR-5 ovarian
40 µM: HL-60(TB) leukemia
47.6 µM: LOX IMVI melanoma
42.2 µM: SK-MEL-2 melanoma
93.7 µM: SF-295 CNS
96.9 µM: OVCAR-8 ovarian
47.3 µM: U251 CNS | MALME-3M melanoma
87.5 µM: MOLT-4 leukemia
69.7 µM: PC-3 prostate
79.8 µM: TK-10 renal
44.9 µM: SR leukemia
55.1 µM: HCT-116 colon
41.9 µM: HCC-2998 colon
64.3 µM: NCI-H522 lung
43.2 µM: RXF 393 renal
73.6 µM: NCI-H460 lung
49 µM: COLO 205 colon
83.7 µM: MDA-N
41.6 µM: OVCAR-3 ovarian
not listed: NCI-H226 lung
> 100 µM: all other assays above

CCO/C=N/NC(=O)CSc1nc2ccc(I)cc2c(=O)n1Cc1ccccc1
65.1 µM: SK-MEL-2 melanoma
13.3 µM: NCI-H522 lung
not listed: MALME-3M melanoma
> 100 µM: all other assays above
